The values that follow come from patent publication US11142515B2, “Pyrazolyl-ureas as kinase inhibitors” (RESPIVERT LIMITED, priority 2014, dated 2021).

In data set [1] the target is T1, p38 MAPKα isoform (MAPK14) (Homo sapiens, UniProt Q16539).
T1 construct: purchased Life Technologies
As to the kind of experiment: p38 MAPKα enzyme inhibition (Z-LYTE FRET). It is filed as biochemical. Conditions: Table 2A; read-out: IC50 Values for Enzyme Inhibition p38 MAPKα. Put shortly: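 Activity was measured indirectly as phosphorylation of a MAPKAP-K2-derived FRET peptide. Enzyme (added at 40 ng/mL) was preincubated 2 h at RT with compound (added solutions 40–0.0012 μg/mL).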

Another data set has as its target T2, Hck (Homo sapiens, UniProt P08631).
T2 construct: purchased Life Technologies
As to the kind of experiment: Hck enzyme inhibition (Z-LYTE FRET). It is filed as biochemical. The conditions noted are these: Table 2A. As to the method: (§1) The enzyme inhibitory activities of compounds disclosed herein were determined by FRET using synthetic peptides labelled with both donor and acceptor fluorophores (Z-LYTE, Life Technologies, Paisley, UK).
(§2) The relevant enzyme (1000 ng/mL, 1400 ng/mL or 2000 ng/mL respectively, 2.5 μL) was incubated with the test compound (either 40 μg/mL, 12 μg/mL, 4 μg/mL, 1.2 μg/mL, 0.4 μg/mL, 0.12 μg/mL, 0.04 μg/mL, 0.012 μg/mL, 0.004 μg/mL or 0.0012 μg/mL, 2.5 μL each) for 2 h at RT. The FRET peptides (8 μM, 2.5 μL), and appropriate ATP solutions (2.5 μL, 800 μM for c-Src, and 60 μM ATP for HCK and Syk) were then added to the enzyme/compound mixtures and incubated for 1 h at RT. Development reagent (protease, 5 μL) was added for 1 h prior to detection in a fluorescence microplate reader (EnVision, Perkin Elmer).
(§3) In all cases, the site-specific protease cleaves non-phosphorylated peptide only and eliminates the FRET signal. Phosphorylation levels of each reaction were calculated using the ratio of coumarin emission (donor) over fluorescein emission (acceptor), for which low ratios indicate high phosphorylation and high ratios indicate low phosphorylation levels.

For a further data set, the target named is T3, Syk (Homo sapiens, UniProt P43405).
T3 construct: purchased Life Technologies
As to the kind of experiment: Syk enzyme inhibition (Z-LYTE FRET). It is filed as biochemical. Conditions: Table 2A. The procedure:
as §1, §2, §3

A further data set addresses T4, GSK 3α enzyme isoform (Homo sapiens, UniProt P49840).
T4 construct: purchased Life Technologies
As to the kind of experiment: GSK 3α enzyme inhibition (Z-LYTE FRET). It is filed as biochemical. The conditions noted are these: Table 2A; read-out: IC50 Values for Enzyme Inhibition GSK3α. As to the method:
as §1
The GSK3a protein (500 ng/mL, 2.5 μL) was incubated with the test compound (2.5 μL at either 40 μg/mL, 12 μg/mL, 4 μg/mL, 1.2 μg/mL, 0.4 μg/mL, 0.12 μg/mL, 0.04 μg/mL, 0.012 μg/mL, 0.004 μg/mL or 0.0012 μg/mL) for 2 h at RT. The FRET peptide (8 μM, 2.5 μL), which is a phosphorylation target for GSK3α, and ATP (40 μM, 2.5 μL) was then added to the enzyme/compound mixture and the resulting mixture incubated for 1 h at RT. Development reagent (protease, 5 μL) was added for 1 h prior to detection in a fluorescence microplate reader (EnVision, Perkin Elmer).
as §3

For data set [2], the system named is IL-8 release in d-U937 cells. As to the kind of experiment: LPS-induced IL-8 release in d-U937 cells. It counts as cell-based. Conditions: Homo sapiens, dU937, LPS 0.1 μg/mL 4 h. As to the method: U937 cells, a human monocytic cell line, were differentiated into macrophage-type cells by incubation with PMA (100-200 ng/mL) for 48 to 72 h. Cells were pre-incubated with final […] concentrations of test compound for 2 h and were then stimulated with LPS (0.1 μg/mL; from E. coli: O111:B4, Sigma) for 4 h. The supernatant was collected for determination of TNFα and IL-8 concentrations by sandwich ELISA (Duo-set, R&D systems). […] The relative 50% effective concentration (REC50) was determined from the resultant concentration-response curve. The inhibition of IL-8 production was calculated at each concentration of test compound by comparison with vehicle control.

Another data set relates to d-U937 cells. As to the kind of experiment: Cell viability: MTT assay in differentiated U937 cells. It counts as cell-based, human. Conditions: 10 μg/mL. As to the method: Differentiated U937 cells were pre-incubated with each test compound (final concentration 10 μg/mL in 200 μL media indicated below) under two protocols: the first for 4 h in 5% FCS RPMI1640 media and the second in 10% FCS RPMI1640 media for 24 h. The supernatant was replaced with new media (200 μL) and MTT stock solution (10 μL, 5 mg/mL) was added to each well. After incubation for 1 h the media were removed, DMSO (200 μL) was added to each well and the plates were shaken lightly for 1 h prior to reading the absorbance at 550 nm. The percentage loss of cell viability was calculated for each well relative to vehicle (0.5% DMSO) treatment. Consequently an apparent increase in cell viability for drug treatment relative to vehicle is tabulated as a negative percentage.

pIC50: −log10 of the molar value.

T2 sequence (P08631 22-526): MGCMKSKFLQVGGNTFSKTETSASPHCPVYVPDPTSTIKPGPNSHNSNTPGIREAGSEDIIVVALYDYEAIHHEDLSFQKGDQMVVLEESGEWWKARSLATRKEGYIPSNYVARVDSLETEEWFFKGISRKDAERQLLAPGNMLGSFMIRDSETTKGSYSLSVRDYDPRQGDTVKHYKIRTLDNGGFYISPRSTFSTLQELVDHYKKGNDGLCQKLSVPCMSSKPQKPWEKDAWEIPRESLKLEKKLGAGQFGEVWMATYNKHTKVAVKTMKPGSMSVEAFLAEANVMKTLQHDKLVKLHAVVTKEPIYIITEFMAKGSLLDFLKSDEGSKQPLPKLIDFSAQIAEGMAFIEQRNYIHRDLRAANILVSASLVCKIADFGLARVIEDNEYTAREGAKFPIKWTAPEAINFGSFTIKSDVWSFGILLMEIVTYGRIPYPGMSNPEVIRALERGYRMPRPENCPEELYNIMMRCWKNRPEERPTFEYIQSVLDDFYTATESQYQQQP
T4 sequence (P49840 whole entry, canonical isoform): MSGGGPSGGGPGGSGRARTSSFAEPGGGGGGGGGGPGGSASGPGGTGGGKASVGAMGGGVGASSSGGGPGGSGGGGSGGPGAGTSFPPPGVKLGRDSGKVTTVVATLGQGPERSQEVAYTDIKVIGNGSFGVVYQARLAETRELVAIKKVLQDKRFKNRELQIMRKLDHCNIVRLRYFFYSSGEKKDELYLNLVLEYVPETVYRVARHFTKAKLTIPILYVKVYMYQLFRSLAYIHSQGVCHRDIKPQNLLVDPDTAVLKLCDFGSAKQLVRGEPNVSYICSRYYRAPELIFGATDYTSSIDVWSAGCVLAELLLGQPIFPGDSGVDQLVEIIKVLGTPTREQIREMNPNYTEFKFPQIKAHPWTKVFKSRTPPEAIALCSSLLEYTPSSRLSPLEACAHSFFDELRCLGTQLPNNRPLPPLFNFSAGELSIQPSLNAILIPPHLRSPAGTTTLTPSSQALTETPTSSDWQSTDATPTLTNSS
T1 sequence (Q16539 whole entry, canonical isoform): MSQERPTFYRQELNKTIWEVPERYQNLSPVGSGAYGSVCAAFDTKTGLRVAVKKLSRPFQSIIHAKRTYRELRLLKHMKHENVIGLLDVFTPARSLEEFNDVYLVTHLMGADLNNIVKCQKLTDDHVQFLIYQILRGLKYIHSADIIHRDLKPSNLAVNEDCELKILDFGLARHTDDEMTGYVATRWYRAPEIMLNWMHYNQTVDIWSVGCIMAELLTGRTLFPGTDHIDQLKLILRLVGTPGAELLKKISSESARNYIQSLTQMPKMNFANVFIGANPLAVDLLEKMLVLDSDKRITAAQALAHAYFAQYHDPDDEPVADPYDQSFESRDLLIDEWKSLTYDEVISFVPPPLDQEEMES

With `Cc1ccc(-n2nc(C(C)(C)C)cc2NC(=O)Nc2ccc(OCc3ccnc(Nc4cnc(C5CC5)cn4)c3)c3ccccc23)cc1` [Example 16], the pIC50 was 7.06 in data set [1]; 6.45 against Hck; less than 4.81 against Syk; less than 4.81 at GSK 3α enzyme isoform; 7.05 in data set [2]. The “MTT Assay Cell viability at time point indicated in d-U937 Cells, 4 h” value (from here on “MTT Assay Cell viability … in d-U937 Cells, 4 h”) in the data set with d-U937 cells is “− (−ve and +ve indicate the value is below and above, respectively, the no significant effect threshold defined as 30% inhibition at 10 μg/mL at the time point indicated)”. Moreover, the “MTT Assay Cell viability at time point indicated in d-U937 Cells, 24 h” value (from here on “MTT Assay Cell viability … 24 h”) in the data set with d-U937 cells is “− (−ve and +ve indicate the value is below and above, respectively, the no significant effect threshold defined as 30% inhibition at 10 μg/mL at the time point indicated)”.

As for `CNC(=O)c1cnc(Nc2cc(COc3ccc(NC(=O)Nc4cc(C(C)(C)C)nn4-c4ccc(C)cc4)c4ccccc34)ccn2)cn1` [Example 7, 5-((4-(((4-(3-(3-(tert-Butyl)-1-(p-tolyl)-1H-pyrazol-5-yl)ureido)naphthalen-1-yl)oxy)methyl)pyridin-2-yl)amino)-N-methylpyrazine-2-carboxamide], the pIC50 was 7.82 in data set [1]; 7.19 against Hck; less than 4.82 against Syk; less than 4.82 at GSK 3α enzyme isoform; 7.78 in data set [2]. Besides, the “MTT Assay Cell viability … in d-U937 Cells, 4 h” value with d-U937 cells is “+ (−ve and +ve indicate the value is below and above, respectively, the no significant effect threshold defined as 30% inhibition at 10 μg/mL at the time point indicated)”. Also, in the data set with d-U937 cells, the “MTT Assay Cell viability … 24 h” value is “+ (−ve and +ve indicate the value is below and above, respectively, the no significant effect threshold defined as 30% inhibition at 10 μg/mL at the time point indicated)”.

As for `Cc1cc(-n2nc(C(C)(C)C)cc2NC(=O)Nc2ccc(OCc3ccnc(Nc4cnccn4)c3)c3ccccc23)cs1` (single isomer, unassigned) [Example 31], the pIC50 in data set [1] is 8.40; on Hck it was 7.23; at Syk, less than 4.78; at GSK 3α enzyme isoform, 4.95; in data set [2] it was 7.48. In addition, in the data set on d-U937 cells, the “MTT Assay Cell viability … in d-U937 Cells, 4 h” value was “− (−ve and +ve indicate the value is below and above, respectively, the no significant effect threshold defined as 30% inhibition at 10 μg/mL at the time point indicated)”. In addition, the “MTT Assay Cell viability … 24 h” value in the data set with d-U937 cells is “− (−ve and +ve indicate the value is below and above, respectively, the no significant effect threshold defined as 30% inhibition at 10 μg/mL at the time point indicated)”.

In the case of `Cc1ccc(-n2nc(C(C)(C)C)cc2NC(=O)Nc2ccc(OCc3ccnc(Nc4cncc(C5CC5)n4)c3)c3ccccc23)cc1` [Example 15], the pIC50 in data set [1] was 7.02; against Hck, 7.82; against Syk, less than 4.81; on GSK 3α enzyme isoform, 5.44; in data set [2] it was 8.72. Moreover, the “MTT Assay Cell viability … in d-U937 Cells, 4 h” value in the data set with d-U937 cells is “− (−ve and +ve indicate the value is below and above, respectively, the no significant effect threshold defined as 30% inhibition at 10 μg/mL at the time point indicated)”. The “MTT Assay Cell viability … 24 h” value with d-U937 cells is “− (−ve and +ve indicate the value is below and above, respectively, the no significant effect threshold defined as 30% inhibition at 10 μg/mL at the time point indicated)”.

For the compound `CC(C)(C)c1cc(NC(=O)Nc2ccc(OCc3ccnc(Nc4cnccn4)c3)c3ccccc23)n(-c2ccc(Cl)cc2)n1` [Example 45], the pIC50 in data set [1] was 6.92; at Hck it was 5.65; at Syk it was less than 4.79; on GSK 3α enzyme isoform it was 5.72; in data set [2], 7.77. In the data set with d-U937 cells, the “MTT Assay Cell viability … in d-U937 Cells, 4 h” value was “− (−ve and +ve indicate the value is below and above, respectively, the no significant effect threshold defined as 30% inhibition at 10 μg/mL at the time point indicated)”. Besides, the “MTT Assay Cell viability … 24 h” value in the data set with d-U937 cells was “− (−ve and +ve indicate the value is below and above, respectively, the no significant effect threshold defined as 30% inhibition at 10 μg/mL at the time point indicated)”.

For `Cc1ccc(-n2nc(C(C)(C)C)cc2NC(=O)Nc2ccc(OCc3ccnc(Nc4cnc(CN)cn4)c3)c3ccccc23)cc1` [Example 5, 1-(4-((2-((5-(Aminomethyl)pyrazin-2-yl)amino)pyridin-4-yl)methoxy)naphthalen-1-yl)-3-(3-(tert-butyl)-1-(p-tolyl)-1H-pyrazol-5-yl)urea], the pIC50 in data set [1] is greater than 9.32; at Hck, greater than 9.32; on Syk, less than 4.80; at GSK 3α enzyme isoform it was 5.56; in data set [2] it was 8.62. Moreover, the “MTT Assay Cell viability … in d-U937 Cells, 4 h” value in the data set with d-U937 cells is “− (−ve and +ve indicate the value is below and above, respectively, the no significant effect threshold defined as 30% inhibition at 10 μg/mL at the time point indicated)”. Besides, the “MTT Assay Cell viability … 24 h” value with d-U937 cells was “+ (−ve and +ve indicate the value is below and above, respectively, the no significant effect threshold defined as 30% inhibition at 10 μg/mL at the time point indicated)”.

With `COCCNC(=O)c1cnc(Nc2cc(COc3ccc(NC(=O)Nc4cc(C(C)(C)C)nn4-c4ccc(C)cc4)c4ccccc34)ccn2)cn1` [Example 3], the pIC50 was 8.05 in data set [1]; 7.18 against Hck; less than 4.84 against Syk; less than 4.84 at GSK 3α enzyme isoform; 8.06 in data set [2]. For the same compound, the “MTT Assay Cell viability … in d-U937 Cells, 4 h” value in the data set on d-U937 cells is “− (−ve and +ve indicate the value is below and above, respectively, the no significant effect threshold defined as 30% inhibition at 10 μg/mL at the time point indicated)”. Further, the “MTT Assay Cell viability … 24 h” value in the data set on d-U937 cells is “− (−ve and +ve indicate the value is below and above, respectively, the no significant effect threshold defined as 30% inhibition at 10 μg/mL at the time point indicated)”.

Consider `Cc1ccc(-n2nc(C(C)(C)C)cc2NC(=O)Nc2ccc(OCc3ccnc(Nc4cnc(CC(=O)N(C)C)cn4)c3)c3ccccc23)cc1` [Example 29], for which the pIC50 was 8.30 in data set [1]; 8.00 on Hck; less than 4.83 at Syk; 6.68 at GSK 3α enzyme isoform; 8.07 in data set [2]. The “MTT Assay Cell viability … in d-U937 Cells, 4 h” value in the data set with d-U937 cells is “− (−ve and +ve indicate the value is below and above, respectively, the no significant effect threshold defined as 30% inhibition at 10 μg/mL at the time point indicated)”. Further, the “MTT Assay Cell viability … 24 h” value with d-U937 cells is “+ (−ve and +ve indicate the value is below and above, respectively, the no significant effect threshold defined as 30% inhibition at 10 μg/mL at the time point indicated)”.

`CC(C)(C)c1cc(NC(=O)Nc2ccc(OCc3ccnc(Nc4cncc(C5CC5)n4)c3)c3ccccc23)n(-c2ccc(O)cc2)n1` [Example 34]: the pIC50 was 7.89 in data set [1]; 8.15 against Hck; 5.37 at Syk; 5.92 on GSK 3α enzyme isoform; 8.08 in data set [2]. In the data set with d-U937 cells, the “MTT Assay Cell viability … in d-U937 Cells, 4 h” value is “− (−ve and +ve indicate the value is below and above, respectively, the no significant effect threshold defined as 30% inhibition at 10 μg/mL at the time point indicated)”. Besides, the “MTT Assay Cell viability … 24 h” value with d-U937 cells is “− (−ve and +ve indicate the value is below and above, respectively, the no significant effect threshold defined as 30% inhibition at 10 μg/mL at the time point indicated)”.
